Data as given in patent US5149716A, “Insulin derivatives, process for their preparation, their use and a pharmaceutical preparation containing them” (Hoechst Aktiengesellschaft, priority 1989, dated 1992).

Key:
fasting male rabbits = assay: Hypoglycemic action after intravenous administration; format: in vivo, rabbit; settings: i.v.; for Change in blood glucose from starting value: 6.25 microliters/kg of 2.2 mg in 1.5 ml 0.9% NaCl, 5 fasting male rabbits
Procedure: 2.2 mg of anhydrous (A-1)Thr--(AO)Arg--(B30)Des--Thr human insulin were taken up in 1.5 ml of 0.9% strength NaCl solution. 2.2 mg of human insulin, also in 1.5 ml of physiological saline solution, were used as comparison and standard substance. 6.25 microliters of sample solution/kg of live weight were in each case intravenously administered to 5 fasting male rabbits having mean weights of 3.1 kg. 6.25 microliters of standard solution per kg were likewise administered i.v. to 5 other animals. After various times, blood samples were taken and examined for blood sugar concentrations. Within the limits of error, the following measurement results were found: […]

[1] = Subcutaneous administration of a crystal suspension; format: in vivo
[2] = measured by isoelectric focusing; prior art (European Patent 132,769 and 132,770); cited from earlier work

| Substance | Change in blood glucose from starting value (fasting male rabbits; 1/2 h) | Change in blood glucose from starting value (fasting male rabbits; 1 h) | Change in blood glucose from starting value (fasting male rabbits; 2 h) | Change in blood glucose from starting value (fasting male rabbits; 3 h) | hypoglycemic action (fasting male rabbits; rabbits, compared with human insulin) | action profile [1] | Change in blood glucose from starting value (fasting male rabbits; 4 h) | isoelectric point [2] |
| --- | --- | --- | --- | --- | --- | --- | --- | --- |
| (A-1)Thr--(AO)Arg--(B30)Des--Thr human insulin [(A-1)Thr-(AO)-Arg-(B30)Des-Thr insulin] | -31% | -31% | -20% | -3% | of the same order of magnitude as that of the (unmodified) human insulin | acts in a sustained manner | – | – |
| human insulin | -28% | -27% | -18% | -11% | – | – | -6% | – |
| native insulin: unmodified native insulin | – | – | – | – | – | – | – | 5.4 |
| proinsulin | – | – | – | – | – | – | – | 5.4 |
